Experimental data as given in patent US10882854B2, “Heterocyclic compounds and use thereof” (National Health Research Institutes, priority 2017, dated 2021).
pIC50: −log10 of the molar value.

Molecular target: T1, human CXCR4 (Homo sapiens, UniProt P61073)
T1 construct: expressed in transfected cells; host or cells: HEK293 cells (membranes)
Assay: Inhibition of 125I-CXCL12 radioligand binding, membranes of human CXCR4-transfected HEK293 cells
Conditions: 0.16 nM 125I-CXCL12, 60 min at 30 °C, read-out: concentration required to inhibit binding of 125I-CXCL12 to CXCR4 by 50% (IC50)
Description: Binding competition between the compounds of Formula (I) and human CXCL12 was assessed using a radioligand binding assay as described below.
Membranes (2-4 μg) prepared from human CXCR4-transfected HEK293 cells in 40 μL of assay buffer (50 mM HEPES-NaOH, pH 7.4, 100 mM NaCl, 5 mM MgCl2, 1 mM CaCl2, 0.5% bovine serum albumin) were incubated with 20 μL of radio-labeled ^125I-CXCL12 (0.16 nM) and 20 μL of a test compound in an assay plate (Costar Corning, Cambridge, Mass.). After 60 minutes at 30° C., the incubation was terminated by transferring the resulting reaction mixture to a 96-well GF/B filter plate (Millipore Corp., Billerica, Mass.) and filtered via a manifold. The plate was washed with 100 μL of ice-cold wash buffer (50 mM HEPES-NaOH, pH 7.4, 100 mM NaCl) four times. The radioactivity bound to the filter was measured by Topcount (PerkinElmer Inc., Waltham, Mass.).

T1 sequence (P61073 whole entry): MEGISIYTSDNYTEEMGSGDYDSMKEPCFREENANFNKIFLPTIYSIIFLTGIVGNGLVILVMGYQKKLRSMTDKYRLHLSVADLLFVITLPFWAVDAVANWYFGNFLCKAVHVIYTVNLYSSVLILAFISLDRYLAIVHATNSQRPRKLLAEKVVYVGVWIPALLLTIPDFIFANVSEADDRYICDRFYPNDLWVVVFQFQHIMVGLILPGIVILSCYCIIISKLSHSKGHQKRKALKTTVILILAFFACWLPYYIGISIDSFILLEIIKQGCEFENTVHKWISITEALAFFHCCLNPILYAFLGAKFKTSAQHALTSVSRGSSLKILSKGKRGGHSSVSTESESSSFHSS

Nc1cc(N2CCNCC2)nc(NCc2nnn(CCCNCCCNC3CCCCC3)n2)n1 [Compound 57] and c1nc2c(NCc3nnn(CCCNCCCNC4CCCCC4)n3)nc(N3CCNCC3)nc2[nH]1 [Compound 55] fall in the same range of pIC50: 6.00 to 7.00 for the first, 6.00 to 7.00 for the second.

N[C@@H](CCC(=O)NCCN1CCC(Nc2nc(NCc3nnc(CCCNCCCNC4CCCCC4)o3)nc3ccccc23)CC1)C(=O)NCCP(=O)(O)O [Compound 51] and N[C@@H](CCC(=O)NCCN1CCC(Nc2nc(NCc3nc(CNCCCNC4CCCCC4)cs3)nc3ccccc23)CC1)C(=O)NCCP(=O)(O)O [Compound 84] fall in the same range of pIC50: 6.00 to 7.00 for the first, 6.00 to 7.00 for the second.

First: Cc1cc(NC2CCN(C(=O)CCNCC(=O)O)CC2)nc(NCc2ncn(CCCNCCCNC3CCCCC3)n2)n1 [Compound 81]
Second: Cc1cc(NC2CCN(C(=O)CCNCC(=O)O)CC2)nc(NCc2noc(CCCNCCCNC3CCCCC3)n2)n1 [Compound 43]
The pIC50 of the first is lower: 6.00 to 7.00 for the first, 7.00 to 7.30 for the second.

First: c1ccc2c(NC3CCNCC3)nc(NCc3ncn(CCCNCCCNC4CCCCC4)n3)nc2c1 [Compound 11]
Second: c1ccc2c(NC3CCNCC3)nc(NCc3cc(CCCNCCCNC4CCCCC4)[nH]n3)nc2c1 [Compound 9]
The pIC50 of the first is lower: 7.00 to 7.30 for the first, > 7.30 for the second. The second is the more potent here.

CCc1cc(NC2CCN(C(=O)CC[C@H](N)C(=O)O)CC2)nc(NCc2nnn(CCCNCCCNC3CCCCC3)n2)n1 [Compound 65] and CCc1cc(NC2CCN(C(=O)CCNCC(=O)O)CC2)nc(NCc2nnn(CCCNCCCNC3CCCCC3)n2)n1 [Compound 63] fall in the same range of pIC50: 6.00 to 7.00 for the first, 6.00 to 7.00 for the second.

Cc1cc(NC2CCN(C(=O)CCNCC(=O)O)CC2)nc(NCc2nnc(CCCNCCCNC3CCCCC3)o2)n1 [Compound 44] and Cc1cc(NC2CCN(C(=O)CCNCC(=O)O)CC2)nc(NCc2nc(CNCCCNC3CCCCC3)c[nH]2)n1 [Compound 83] fall in the same range of pIC50: 6.00 to 7.00 for the first, 6.00 to 7.00 for the second.

First: FC(F)(F)c1cnc(NCc2nnn(CCCNCCCNC3CCCCC3)n2)nc1NC1CCNCC1 [Compound 74]
Second: Cc1cnc(NCc2nnn(CCCNCCCNC3CCCCC3)n2)nc1NC1CCNCC1 [Compound 75]
The pIC50 of the first is lower: 6.00 to 7.00 for the first, > 7.30 for the second.

First: c1cc(NC2CCNCC2)nc(NCc2nnn(CCCNCCCNC3CCCCC3)n2)n1 [Compound 58]
Second: c1cc2c(NC3CCNCC3)nc(NCc3nnn(CCCNCCCNC4CCCCC4)n3)nc2s1 [Compound 56]
The pIC50 of the first is higher: 7.00 to 7.30 for the first, 6.00 to 7.00 for the second. The first is the more potent here.

N[C@@H](CCC(=O)N1CCC(Nc2nc(NCc3ncn(CCCNCCCNC4CCCCC4)n3)nc3ccccc23)CC1)C(=O)O [Compound 77] and N[C@@H](CCC(=O)N1CCC(Nc2nc(NCc3nnnn3CCCNCCCNC3CCCCC3)nc3ccccc23)CC1)C(=O)O [Compound 67] fall in the same range of pIC50: 6.00 to 7.00 for the first, 6.00 to 7.00 for the second.

Cc1cc(NC2CCNCC2)nc(NCc2noc(CCCNCCCNC3CCCCC3)n2)n1 [Compound 19] and Cc1cc(NC2CCNCC2)nc(NCc2cc(CCCNCCCNC3CCCCC3)[nH]n2)n1 [Compound 28] cannot be ordered by pIC50: > 7.30 for the first, > 7.30 for the second.

Compared with N[C@@H](CCC(=O)N1CCC(Nc2nc(NCc3cc(CCCNCCCNC4CCCCC4)n[nH]3)nc3ccccc23)CC1)C(=O)O [Compound 76], N[C@@H](CCC(=O)N1CCC(Nc2nc(NCCc3cn(CCCCNCCCNC4CCCCC4)cn3)nc3ccccc23)CC1)C(=O)O [Compound 36] is lower in pIC50: 7.00 to 7.30 for the first, 6.00 to 7.00 for the second.

First: C1=NC(CNc2nc(NC3CCNCC3)c3ccccc3n2)=NC1CNCCCNC1CCCCC1 (centres unmarked) [Compound 72]
Second: CCc1cc(NC2CCNCC2)nc(NCc2nnc(CCCNCCCNC3CCCCC3)s2)n1 [Compound 25]
The pIC50 of the first is lower: 7.00 to 7.30 for the first, > 7.30 for the second. The second is the more potent here.

Cc1cnc(NCc2nnn(CCCNCCCNC3CCCCC3)n2)nc1NC1CCN(C(=O)CCNCC(=O)O)CC1 [Compound 85] and Cc1cnc(NCc2nnn(CCCNCCCNC3CCCCC3)n2)nc1NC1CCN(C(=O)CC[C@H](N)C(=O)O)CC1 [Compound 86] fall in the same range of pIC50: 6.00 to 7.00 for the first, 6.00 to 7.00 for the second.

Compared with O=C(O)CNCCC(=O)N1CCC(Nc2nc(NCc3nnnn3CCCNCCCNC3CCCCC3)nc3ccccc23)CC1 [Compound 68], CCOC(=O)CNCCC(=O)N1CCC(Nc2cc(C)nc(NCc3cc(CCCNCCCNC4CCCCC4)n[nH]3)n2)CC1 [Compound 82] is higher in pIC50: 6.00 to 7.00 for the first, 7.00 to 7.30 for the second. The second is the more potent here.

Work on CCc1cc(NC2CCN(C(=O)CC[C@H](N)C(=O)O)CC2)nc(NCc2nnc(CCCNCCCNC3CCCCC3)[nH]2)n1 [Compound 66] yielded a pIC50 of 7.00 to 7.30.
